Results published in article PMC9481151, “Discovery of new symmetrical and asymmetrical nitrile-containing 1,4-dihydropyridine derivatives as dual kinases and P-glycoprotein inhibitors: synthesis, in vitro assays, and in silico studies” (Journal of Enzyme Inhibition and Medicinal Chemistry, 2022).

Experiments:
[1] = tested on: NCI-H23; experiment: NCI single dose (10 µM) SRB screen; type: cell-based, human; settings: non-small cell lung cancer, 48 h
[2] = tested on: MALME-3M; experiment: NCI single dose (10 µM) SRB screen; type: cell-based, human; settings: melanoma, 48 h
[3] = tested on: SNB-19; experiment: NCI single dose (10 µM) SRB screen; type: cell-based, human; settings: CNS cancer, 48 h
[4] = tested on: ACHN; experiment: NCI single dose (10 µM) SRB screen; type: cell-based, human; settings: renal cancer, 48 h
[5] = tested on: HCT-116; experiment: NCI single dose (10 µM) SRB screen; type: cell-based, human; settings: colon cancer, 48 h
[6] = tested on: COLO 205; experiment: NCI single dose (10 µM) SRB screen; type: cell-based, human; settings: colon cancer, 48 h
[7] = tested on: HS578T; experiment: NCI single dose (10 µM) SRB screen; type: cell-based, human; settings: breast cancer, 48 h
[8] = tested on: OVCAR-4; experiment: NCI single dose (10 µM) SRB screen; type: cell-based, human; settings: ovarian cancer, 48 h
[9] = tested on: HL-60(TB); experiment: NCI single dose (10 µM) SRB screen; type: cell-based, human; settings: leukaemia, 48 h
[10] = tested on: SK-MEL-5; experiment: NCI single dose (10 µM) SRB screen; type: cell-based, human; settings: melanoma, 48 h
[11] = tested on: K-562; experiment: NCI single dose (10 µM) SRB screen; type: cell-based, human; settings: leukaemia, 48 h
[12] = tested on: NCI-H226; experiment: NCI single dose (10 µM) SRB screen; type: cell-based, human; settings: non-small cell lung cancer, 48 h
[13] = tested on: DU-145; experiment: NCI single dose (10 µM) SRB screen; type: cell-based, human; settings: prostate cancer, 48 h
[14] = tested on: HOP-92; experiment: NCI single dose (10 µM) SRB screen; type: cell-based, human; settings: non-small cell lung cancer, 48 h
[15] = tested on: OVCAR-5; experiment: NCI single dose (10 µM) SRB screen; type: cell-based, human; settings: ovarian cancer, 48 h
[16] = tested on: SK-MEL-2; experiment: NCI single dose (10 µM) SRB screen; type: cell-based, human; settings: melanoma, 48 h
[17] = tested on: Candida albicans; experiment: Agar well diffusion method; settings: relative to clotrimazole
[18] = tested on: MDA-MB-231; experiment: NCI single dose (10 µM) SRB screen; type: cell-based, human; settings: breast cancer, 48 h
[19] = tested on: KM12; experiment: NCI single dose (10 µM) SRB screen; type: cell-based, human; settings: colon cancer, 48 h
[20] = tested on: UO-31; experiment: NCI single dose (10 µM) SRB screen; type: cell-based, human; settings: renal cancer, 48 h
[21] = tested on: CAKI-1; experiment: NCI single dose (10 µM) SRB screen; type: cell-based, human; settings: renal cancer, 48 h
[22] = tested on: A498; experiment: NCI single dose (10 µM) SRB screen; type: cell-based, human; settings: renal cancer, 48 h
[23] = tested on: Escherichia coli; experiment: Agar well diffusion method; settings: relative to ciprofloxacin
[24] = tested on: SK-MEL-28; experiment: NCI single dose (10 µM) SRB screen; type: cell-based, human; settings: melanoma, 48 h
[25] = tested on: MDA-MB-435; experiment: NCI single dose (10 µM) SRB screen; type: cell-based, human; settings: melanoma, 48 h
[26] = tested on: T-47D; experiment: NCI single dose (10 µM) SRB screen; type: cell-based, human; settings: breast cancer, 48 h
[27] = tested on: U251; experiment: NCI single dose (10 µM) SRB screen; type: cell-based, human; settings: CNS cancer, 48 h
[28] = tested on: CCRF-CEM; experiment: NCI single dose (10 µM) SRB screen; type: cell-based, human; settings: leukaemia, 48 h
[29] = tested on: HCT-15; experiment: NCI single dose (10 µM) SRB screen; type: cell-based, human; settings: colon cancer, 48 h
[30] = tested on: MOLT-4; experiment: NCI single dose (10 µM) SRB screen; type: cell-based, human; settings: leukaemia, 48 h
[31] = tested on: IGROV1; experiment: NCI single dose (10 µM) SRB screen; type: cell-based, human; settings: ovarian cancer, 48 h
[32] = tested on: TK-10; experiment: NCI single dose (10 µM) SRB screen; type: cell-based, human; settings: renal cancer, 48 h
[33] = tested on: HOP-62; experiment: NCI single dose (10 µM) SRB screen; type: cell-based, human; settings: non-small cell lung cancer, 48 h
[34] = tested on: Pseudomonas aeruginosa; experiment: Agar well diffusion method; settings: relative to ciprofloxacin
[35] = tested on: 786-0; experiment: NCI single dose (10 µM) SRB screen; type: cell-based, human; settings: renal cancer, 48 h
[36] = tested on: Staphylococcus aureus; experiment: Agar well diffusion method; settings: relative to ciprofloxacin
[37] = tested on: A549/ATCC; experiment: NCI single dose (10 µM) SRB screen; type: cell-based, human; settings: non-small cell lung cancer, 48 h
[38] = tested on: SF-539; experiment: NCI single dose (10 µM) SRB screen; type: cell-based, human; settings: CNS cancer, 48 h
[39] = tested on: NCI-H322M; experiment: NCI single dose (10 µM) SRB screen; type: cell-based; settings: non-small cell lung cancer, 48 h
[40] = tested on: SR; experiment: NCI single dose (10 µM) SRB screen; type: cell-based, human; settings: leukaemia, 48 h
[41] = tested on: Aspergillus flavus; experiment: Agar well diffusion method; settings: relative to clotrimazole
[42] = tested on: UACC-62; experiment: NCI single dose (10 µM) SRB screen; type: cell-based, human; settings: melanoma, 48 h
[43] = tested on: SN12C; experiment: NCI single dose (10 µM) SRB screen; type: cell-based, human; settings: renal cancer, 48 h
[44] = tested on: HT29; experiment: NCI single dose (10 µM) SRB screen; type: cell-based, human; settings: colon cancer, 48 h
[45] = tested on: NCI-H522; experiment: NCI single dose (10 µM) SRB screen; type: cell-based, human; settings: non-small cell lung cancer, 48 h
[46] = tested on: Bacillus subtilis; experiment: Agar well diffusion method; settings: relative to ciprofloxacin
[47] = tested on: SF-295; experiment: NCI single dose (10 µM) SRB screen; type: cell-based, human; settings: CNS cancer, 48 h
[48] = tested on: PC-3; experiment: NCI single dose (10 µM) SRB screen; type: cell-based, human; settings: prostate cancer, 48 h
[49] = tested on: MDA-MB-468; experiment: NCI single dose (10 µM) SRB screen; type: cell-based, human; settings: breast cancer, 48 h
[50] = tested on: LOX IMVI; experiment: NCI single dose (10 µM) SRB screen; type: cell-based, human; settings: melanoma, 48 h
[51] = tested on: SK-OV-3; experiment: NCI single dose (10 µM) SRB screen; type: cell-based, human; settings: ovarian cancer, 48 h
[52] = tested on: SF-268; experiment: NCI single dose (10 µM) SRB screen; type: cell-based, human; settings: CNS cancer, 48 h
[53] = tested on: SW-620; experiment: NCI single dose (10 µM) SRB screen; type: cell-based, human; settings: colon cancer, 48 h
[54] = tested on: M14; experiment: NCI single dose (10 µM) SRB screen; type: cell-based, human; settings: melanoma, 48 h
[55] = tested on: UACC-257; experiment: NCI single dose (10 µM) SRB screen; type: cell-based, human; settings: melanoma, 48 h
[56] = tested on: NCI 60 cancer cell lines; experiment: NCI single dose (10 µM) SRB screen, mean over panel; type: cell-based, human; settings: mean over 60 cell lines, 48 h
[57] = tested on: NCI/ADR-RES; experiment: NCI single dose (10 µM) SRB screen; type: cell-based, human; settings: ovarian cancer, 48 h
[58] = tested on: MCF7; experiment: NCI single dose (10 µM) SRB screen; type: cell-based, human; settings: breast cancer, 48 h
[59] = tested on: HCC-2998; experiment: NCI single dose (10 µM) SRB screen; type: cell-based, human; settings: colon cancer, 48 h
[60] = tested on: BT-549; experiment: NCI single dose (10 µM) SRB screen; type: cell-based, human; settings: breast cancer, 48 h
[61] = tested on: OVCAR-3; experiment: NCI single dose (10 µM) SRB screen; type: cell-based, human; settings: ovarian cancer, 48 h
[62] = tested on: RXF 393; experiment: NCI single dose (10 µM) SRB screen; type: cell-based, human; settings: renal cancer, 48 h
[63] = tested on: NCI-H460; experiment: NCI single dose (10 µM) SRB screen; type: cell-based, human; settings: non-small cell lung cancer, 48 h
[64] = tested on: RPMI-8226; experiment: NCI single dose (10 µM) SRB screen; type: cell-based, human; settings: leukaemia, 48 h
[65] = tested on: SNB-75; experiment: NCI single dose (10 µM) SRB screen; type: cell-based, human; settings: CNS cancer, 48 h
[66] = tested on: OVCAR-8; experiment: NCI single dose (10 µM) SRB screen; type: cell-based, human; settings: ovarian cancer, 48 h
[67] = tested on: EKVX; experiment: NCI single dose (10 µM) SRB screen; type: cell-based, human; settings: non-small cell lung cancer, 48 h

- melting point: 166 to 168 °C
Structure (SMILES): CC1=C(C(=O)OC(C)(C)C)C(c2cccc(C#N)c2)C(C(=O)OC(C)(C)C)=C(C)N1 [Compound 1e, Di-tert-butyl 4-(3-cyanophenyl)-2,6-dimethyl-1,4-dihydropyridine-3,5-dicarboxylate]
- GI% NCI-H23 [1]: 13%
- GI% MALME-3M [2]: – (Only GI% ≥ 10 are shown)
- GI% SNB-19 [3]: – (Only GI% ≥ 10 are shown)
- GI% ACHN [4]: 14%
- GI% HCT-116 [5]: 35%
- GI% COLO 205 [6]: – (Only GI% ≥ 10 are shown)
- GI% HS578T [7]: – (Only GI% ≥ 10 are shown)
- GI% OVCAR-4 [8]: – (Only GI% ≥ 10 are shown)
- GI% HL-60(TB) [9]: 41%
- GI% SK-MEL-5 [10]: 14%
- GI% K-562 [11]: 34%
- GI% NCI-H226 [12]: 22%
- GI% DU-145 [13]: – (Only GI% ≥ 10 are shown)
- GI% HOP-92 [14]: 30%
- GI% OVCAR-5 [15]: – (Only GI% ≥ 10 are shown)
- GI% SK-MEL-2 [16]: – (Only GI% ≥ 10 are shown)
- % activity index, C. albicans [17]: – (Values below 25 are of limited value and not shown as they refer either to inactive or non-diffusing compounds)
- GI% MDA-MB-231 [18]: 14%
- GI% KM12 [19]: 11%
- GI% UO-31 [20]: 25%
- GI% CAKI-1 [21]: 32%
- GI% A498 [22]: – (Only GI% ≥ 10 are shown)
- % activity index, E. coli [23]: – (Values below 25 are of limited value and not shown as they refer either to inactive or non-diffusing compounds)
- GI% SK-MEL-28 [24]: – (Only GI% ≥ 10 are shown)
- GI% MDA-MB-435 [25]: – (Only GI% ≥ 10 are shown)
- GI% T-47D [26]: 53%
- GI% U251 [27]: – (Only GI% ≥ 10 are shown)
- GI% CCRF-CEM [28]: 16%
- GI% HCT-15 [29]: 19%
- GI% MOLT-4 [30]: 39%
- GI% IGROV1 [31]: – (Only GI% ≥ 10 are shown)
- GI% TK-10 [32]: – (Only GI% ≥ 10 are shown)
- GI% HOP-62 [33]: – (Only GI% ≥ 10 are shown)
- % activity index, P. aeruginosa [34]: – (Values below 25 are of limited value and not shown as they refer either to inactive or non-diffusing compounds)
- GI% 786-0 [35]: 18%
- % activity index, S. aureus [36]: – (Values below 25 are of limited value and not shown as they refer either to inactive or non-diffusing compounds)
- GI% A549/ATCC [37]: 20%
- GI% SF-539 [38]: 10%
- GI% NCI-H322M [39]: – (Only GI% ≥ 10 are shown)
- GI% SR [40]: 42%
- % activity index, A. flavus [41]: – (Values below 25 are of limited value and not shown as they refer either to inactive or non-diffusing compounds)
- GI% UACC-62 [42]: 26%
- GI% SN12C [43]: – (Only GI% ≥ 10 are shown)
- GI% HT29 [44]: 13%
- GI% NCI-H522 [45]: 17%
- % activity index, B. subtilis [46]: – (Values below 25 are of limited value and not shown as they refer either to inactive or non-diffusing compounds)
- GI% SF-295 [47]: 27%
- GI% PC-3 [48]: 48%
- GI% MDA-MB-468 [49]: 27%
- GI% LOX IMVI [50]: 10%
- GI% SK-OV-3 [51]: – (Only GI% ≥ 10 are shown)
- GI% SF-268 [52]: 11%
- GI% SW-620 [53]: – (Only GI% ≥ 10 are shown)
- GI% M14 [54]: – (Only GI% ≥ 10 are shown)
- GI% UACC-257 [55]: 16%
- Mean GI% [56]: 14%
- GI% NCI/ADR-RES [57]: – (Only GI% ≥ 10 are shown)
- GI% MCF7 [58]: 34%
- GI% HCC-2998 [59]: – (Only GI% ≥ 10 are shown)
- GI% BT-549 [60]: – (Only GI% ≥ 10 are shown)
- GI% OVCAR-3 [61]: – (Only GI% ≥ 10 are shown)
- GI% RXF 393 [62]: 33%
- GI% NCI-H460 [63]: – (Only GI% ≥ 10 are shown)
- GI% RPMI-8226 [64]: 39%
- GI% SNB-75 [65]: 38%
- GI% OVCAR-8 [66]: – (Only GI% ≥ 10 are shown)
- GI% EKVX [67]: 20%
